Measurements published in ChEMBL document CHEMBL4507279, “Data for DCP probe BI-9627” (2021).

Columns and labels:
[1] = target: Activin receptor type-2A (Homo sapiens) (UniProt P27037); conditions: Compound concentration 1000.0 nM
[2] = target: Mitogen-activated protein kinase kinase kinase 3 (Homo sapiens) (UniProt Q99759); conditions: Compound concentration 1000.0 nM
[3] = target: High affinity nerve growth factor receptor (Homo sapiens) (UniProt P04629); conditions: Compound concentration 1000.0 nM
[4] = target: Sodium/hydrogen exchanger 2 (Homo sapiens, UniProt Q9UBY0); assay: pHi change assay with SLC9A2
[5] = target: 5'-AMP-activated protein kinase catalytic subunit alpha-2 (Homo sapiens) (UniProt P54646); conditions: Compound concentration 1000.0 nM
[6] = target: Ribosomal protein S6 kinase alpha-5 (Homo sapiens) (UniProt O75582); conditions: Compound concentration 1000.0 nM
[7] = target: Ephrin type-A receptor 1 (Homo sapiens) (UniProt P21709); conditions: Compound concentration 1000.0 nM
[8] = target: Phosphatidylinositol 4-phosphate 3-kinase C2 domain-containing subunit beta (Homo sapiens) (UniProt O00750); conditions: Compound concentration 1000.0 nM
[9] = target: Ephrin type-A receptor 5 (Homo sapiens) (UniProt P54756); conditions: Compound concentration 1000.0 nM
Sequence of Ephrin type-A receptor 5 (Homo sapiens) (P54756 whole entry): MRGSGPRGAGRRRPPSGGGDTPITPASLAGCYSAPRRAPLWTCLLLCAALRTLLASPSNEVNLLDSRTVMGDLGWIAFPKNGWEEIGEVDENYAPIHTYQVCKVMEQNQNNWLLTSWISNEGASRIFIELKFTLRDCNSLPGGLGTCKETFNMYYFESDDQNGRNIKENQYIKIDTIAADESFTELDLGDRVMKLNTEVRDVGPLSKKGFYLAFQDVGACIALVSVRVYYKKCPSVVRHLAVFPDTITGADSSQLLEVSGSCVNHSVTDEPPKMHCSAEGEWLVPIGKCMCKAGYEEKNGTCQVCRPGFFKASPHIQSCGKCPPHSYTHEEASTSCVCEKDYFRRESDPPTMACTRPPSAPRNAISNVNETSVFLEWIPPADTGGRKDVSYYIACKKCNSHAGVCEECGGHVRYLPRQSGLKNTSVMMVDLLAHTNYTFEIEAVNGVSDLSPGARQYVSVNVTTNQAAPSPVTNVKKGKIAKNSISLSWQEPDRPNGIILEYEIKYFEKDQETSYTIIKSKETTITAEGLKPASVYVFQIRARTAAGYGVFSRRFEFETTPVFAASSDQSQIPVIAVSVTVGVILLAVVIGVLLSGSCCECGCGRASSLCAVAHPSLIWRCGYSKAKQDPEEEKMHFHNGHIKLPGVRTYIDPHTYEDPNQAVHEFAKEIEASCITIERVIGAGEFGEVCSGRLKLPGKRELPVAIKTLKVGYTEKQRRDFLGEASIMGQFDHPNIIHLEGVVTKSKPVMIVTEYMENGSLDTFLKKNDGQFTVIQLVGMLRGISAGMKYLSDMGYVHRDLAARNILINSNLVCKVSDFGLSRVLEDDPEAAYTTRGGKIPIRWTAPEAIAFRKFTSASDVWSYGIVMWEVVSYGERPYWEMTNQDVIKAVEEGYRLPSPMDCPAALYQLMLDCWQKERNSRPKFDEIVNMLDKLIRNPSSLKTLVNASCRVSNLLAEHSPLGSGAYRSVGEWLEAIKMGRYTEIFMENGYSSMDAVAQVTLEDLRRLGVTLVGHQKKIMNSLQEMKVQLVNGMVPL

[10] = target: Calcium/calmodulin-dependent protein kinase type II subunit beta (Homo sapiens) (UniProt Q13554); conditions: Compound concentration 1000.0 nM
Sequence of Calcium/calmodulin-dependent protein kinase type II subunit beta (Homo sapiens) (Q13554 whole entry): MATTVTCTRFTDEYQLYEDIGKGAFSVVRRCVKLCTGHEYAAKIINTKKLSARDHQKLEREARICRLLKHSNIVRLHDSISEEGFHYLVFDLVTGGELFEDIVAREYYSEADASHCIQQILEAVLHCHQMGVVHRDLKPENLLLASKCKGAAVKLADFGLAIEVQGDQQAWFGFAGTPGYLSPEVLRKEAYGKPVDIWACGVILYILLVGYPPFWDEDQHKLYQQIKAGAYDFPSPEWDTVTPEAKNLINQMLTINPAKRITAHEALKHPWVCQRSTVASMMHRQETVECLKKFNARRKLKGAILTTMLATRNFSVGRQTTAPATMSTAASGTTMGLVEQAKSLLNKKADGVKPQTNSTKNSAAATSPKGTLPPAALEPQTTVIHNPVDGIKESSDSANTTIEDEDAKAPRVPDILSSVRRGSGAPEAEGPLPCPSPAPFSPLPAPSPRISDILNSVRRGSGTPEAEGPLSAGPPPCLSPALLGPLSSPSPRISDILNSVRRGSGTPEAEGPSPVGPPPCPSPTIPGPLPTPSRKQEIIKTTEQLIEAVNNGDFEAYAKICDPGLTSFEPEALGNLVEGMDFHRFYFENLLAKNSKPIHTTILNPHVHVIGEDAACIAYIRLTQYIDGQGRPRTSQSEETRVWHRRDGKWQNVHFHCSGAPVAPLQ

[11] = target: Protein kinase C delta type (Homo sapiens) (UniProt Q05655); conditions: Compound concentration 1000.0 nM
[12] = target: cAMP-dependent protein kinase catalytic subunit PRKX (Homo sapiens) (UniProt P51817); conditions: Compound concentration 1000.0 nM
[13] = target: Inhibitor of nuclear factor kappa-B kinase subunit alpha (Homo sapiens) (UniProt O15111); conditions: Compound concentration 1000.0 nM
[14] = target: Eukaryotic translation initiation factor 2-alpha kinase 1 (Homo sapiens) (UniProt Q9BQI3); conditions: Compound concentration 1000.0 nM
Sequence of Eukaryotic translation initiation factor 2-alpha kinase 1 (Homo sapiens) (Q9BQI3 whole entry): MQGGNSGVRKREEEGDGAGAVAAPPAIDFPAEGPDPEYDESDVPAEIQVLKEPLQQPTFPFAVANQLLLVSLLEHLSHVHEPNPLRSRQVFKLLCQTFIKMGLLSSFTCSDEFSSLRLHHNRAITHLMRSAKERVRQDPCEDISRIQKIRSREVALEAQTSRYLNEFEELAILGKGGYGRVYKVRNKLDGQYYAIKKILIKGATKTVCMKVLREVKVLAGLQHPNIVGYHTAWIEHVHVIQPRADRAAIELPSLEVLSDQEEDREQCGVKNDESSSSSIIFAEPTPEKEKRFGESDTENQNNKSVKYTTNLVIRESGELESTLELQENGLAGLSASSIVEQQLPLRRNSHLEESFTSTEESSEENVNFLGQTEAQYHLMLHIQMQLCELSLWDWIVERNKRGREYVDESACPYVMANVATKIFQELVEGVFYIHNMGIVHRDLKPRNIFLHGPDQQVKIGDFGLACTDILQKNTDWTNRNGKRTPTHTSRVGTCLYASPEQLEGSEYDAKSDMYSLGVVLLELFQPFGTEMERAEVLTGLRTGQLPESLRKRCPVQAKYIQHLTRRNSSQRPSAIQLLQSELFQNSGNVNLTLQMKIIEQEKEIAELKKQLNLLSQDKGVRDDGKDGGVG

[15] = target: Serine/threonine-protein kinase pim-3 (Homo sapiens) (UniProt Q86V86); conditions: Compound concentration 1000.0 nM
[16] = target: Mitogen-activated protein kinase 6 (Homo sapiens) (UniProt Q16659); conditions: Compound concentration 1000.0 nM
[17] = target: Mitogen-activated protein kinase kinase kinase 5 (Homo sapiens) (UniProt Q99683); conditions: Compound concentration 1000.0 nM
Sequence of Mitogen-activated protein kinase kinase kinase 5 (Homo sapiens) (Q99683 whole entry): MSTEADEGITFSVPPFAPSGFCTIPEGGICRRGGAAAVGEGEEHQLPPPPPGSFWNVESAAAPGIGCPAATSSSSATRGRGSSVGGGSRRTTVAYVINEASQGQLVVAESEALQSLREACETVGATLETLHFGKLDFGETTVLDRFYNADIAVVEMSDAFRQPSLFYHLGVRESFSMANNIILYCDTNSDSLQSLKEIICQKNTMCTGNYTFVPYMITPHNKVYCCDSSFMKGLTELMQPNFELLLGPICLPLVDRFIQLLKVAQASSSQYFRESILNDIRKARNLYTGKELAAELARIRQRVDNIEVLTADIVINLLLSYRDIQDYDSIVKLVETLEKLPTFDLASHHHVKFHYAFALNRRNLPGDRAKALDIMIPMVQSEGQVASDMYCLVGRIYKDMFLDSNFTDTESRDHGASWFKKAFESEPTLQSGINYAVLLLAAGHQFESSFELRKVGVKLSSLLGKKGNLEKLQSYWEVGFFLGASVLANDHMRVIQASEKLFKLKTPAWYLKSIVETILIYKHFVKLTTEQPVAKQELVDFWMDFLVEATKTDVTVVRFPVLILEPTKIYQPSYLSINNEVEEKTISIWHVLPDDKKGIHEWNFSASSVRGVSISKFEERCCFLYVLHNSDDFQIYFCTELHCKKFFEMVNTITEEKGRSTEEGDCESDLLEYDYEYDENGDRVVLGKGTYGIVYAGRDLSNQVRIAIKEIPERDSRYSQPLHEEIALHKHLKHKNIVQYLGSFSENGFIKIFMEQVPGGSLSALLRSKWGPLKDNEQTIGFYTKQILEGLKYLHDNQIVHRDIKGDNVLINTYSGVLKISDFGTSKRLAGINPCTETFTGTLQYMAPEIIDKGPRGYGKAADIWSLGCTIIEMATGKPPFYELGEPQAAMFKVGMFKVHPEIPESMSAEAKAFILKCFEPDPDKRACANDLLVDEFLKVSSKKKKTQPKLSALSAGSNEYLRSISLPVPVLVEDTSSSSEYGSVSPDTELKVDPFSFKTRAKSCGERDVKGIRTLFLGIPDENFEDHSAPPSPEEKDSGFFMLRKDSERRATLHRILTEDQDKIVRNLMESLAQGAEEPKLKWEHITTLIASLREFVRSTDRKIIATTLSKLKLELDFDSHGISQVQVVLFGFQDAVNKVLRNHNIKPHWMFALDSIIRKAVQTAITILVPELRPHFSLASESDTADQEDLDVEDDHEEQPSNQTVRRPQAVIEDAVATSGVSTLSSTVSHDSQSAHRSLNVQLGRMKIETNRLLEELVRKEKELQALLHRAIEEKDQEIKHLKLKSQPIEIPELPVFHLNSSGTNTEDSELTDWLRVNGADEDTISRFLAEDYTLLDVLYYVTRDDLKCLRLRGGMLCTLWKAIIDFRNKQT

[18] = target: Serine/threonine-protein kinase 32C (Homo sapiens) (UniProt Q86UX6); conditions: Compound concentration 1000.0 nM
[19] = system: Mast/stem cell growth factor receptor Kit (Homo sapiens), P10721 [A829P]; conditions: Compound concentration 1000.0 nM
[20] = target: STE20/SPS1-related proline-alanine-rich protein kinase (Homo sapiens) (UniProt Q9UEW8); conditions: Compound concentration 1000.0 nM
[21] = target: Serine/threonine-protein kinase PAK 5 (Homo sapiens) (UniProt Q9P286); conditions: Compound concentration 1000.0 nM
[22] = target: Non-receptor tyrosine-protein kinase TNK1 (Homo sapiens) (UniProt Q13470); conditions: Compound concentration 1000.0 nM
Sequence of Non-receptor tyrosine-protein kinase TNK1 (Homo sapiens) (Q13470 whole entry): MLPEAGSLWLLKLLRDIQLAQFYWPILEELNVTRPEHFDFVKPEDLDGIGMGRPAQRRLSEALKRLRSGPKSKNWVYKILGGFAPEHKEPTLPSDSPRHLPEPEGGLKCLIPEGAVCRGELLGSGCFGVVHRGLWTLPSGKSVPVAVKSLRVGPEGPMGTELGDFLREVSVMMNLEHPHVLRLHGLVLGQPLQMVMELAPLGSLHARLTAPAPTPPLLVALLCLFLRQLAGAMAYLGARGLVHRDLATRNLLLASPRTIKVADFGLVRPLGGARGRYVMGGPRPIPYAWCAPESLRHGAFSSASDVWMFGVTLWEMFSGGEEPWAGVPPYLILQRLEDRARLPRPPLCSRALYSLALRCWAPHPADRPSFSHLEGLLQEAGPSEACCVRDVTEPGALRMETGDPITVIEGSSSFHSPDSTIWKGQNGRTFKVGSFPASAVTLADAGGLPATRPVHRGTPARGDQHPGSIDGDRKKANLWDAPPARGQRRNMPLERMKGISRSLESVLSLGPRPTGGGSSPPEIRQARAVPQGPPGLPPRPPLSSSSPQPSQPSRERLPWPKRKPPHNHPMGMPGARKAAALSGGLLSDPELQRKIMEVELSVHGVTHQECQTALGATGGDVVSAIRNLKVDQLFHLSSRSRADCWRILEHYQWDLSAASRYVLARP

[23] = target: TRAF2 and NCK-interacting protein kinase (Homo sapiens) (UniProt Q9UKE5); conditions: Compound concentration 1000.0 nM
[24] = target: Aurora kinase C (Homo sapiens) (UniProt Q9UQB9); conditions: Compound concentration 1000.0 nM
[25] = target: Dual specificity mitogen-activated protein kinase kinase 6 (Homo sapiens) (UniProt P52564); conditions: Compound concentration 1000.0 nM
[26] = target: Casein kinase I isoform delta (Homo sapiens) (UniProt P48730); conditions: Compound concentration 1000.0 nM
[27] = target: Cyclin-dependent kinase-like 1 (Homo sapiens) (UniProt Q00532); conditions: Compound concentration 1000.0 nM
[28] = target: Serine/threonine-protein kinase pim-1 (Homo sapiens) (UniProt P11309); conditions: Compound concentration 1000.0 nM
[29] = target: 5-hydroxytryptamine receptor 7 (Homo sapiens) (UniProt P34969); conditions: Compound concentration 10.0 uM
[30] = target: Cyclin-dependent kinase 11A (Homo sapiens) (UniProt Q9UQ88); conditions: Compound concentration 1000.0 nM
[31] = target: Tyrosine-protein kinase Fgr (Homo sapiens) (UniProt P09769); conditions: Compound concentration 1000.0 nM
[32] = target: Cyclin-dependent kinase 18 (Homo sapiens) (UniProt Q07002); conditions: Compound concentration 1000.0 nM
[33] = target: Serine/threonine-protein kinase PknB (Mycobacterium tuberculosis) (UniProt P9WI81); conditions: Compound concentration 1000.0 nM
[34] = target: Death-associated protein kinase 2 (Homo sapiens) (UniProt Q9UIK4); conditions: Compound concentration 1000.0 nM
[35] = target: Muscarinic acetylcholine receptor M5 (Homo sapiens) (UniProt P08912); conditions: Compound concentration 10.0 uM
Sequence of Muscarinic acetylcholine receptor M5 (Homo sapiens) (P08912 whole entry): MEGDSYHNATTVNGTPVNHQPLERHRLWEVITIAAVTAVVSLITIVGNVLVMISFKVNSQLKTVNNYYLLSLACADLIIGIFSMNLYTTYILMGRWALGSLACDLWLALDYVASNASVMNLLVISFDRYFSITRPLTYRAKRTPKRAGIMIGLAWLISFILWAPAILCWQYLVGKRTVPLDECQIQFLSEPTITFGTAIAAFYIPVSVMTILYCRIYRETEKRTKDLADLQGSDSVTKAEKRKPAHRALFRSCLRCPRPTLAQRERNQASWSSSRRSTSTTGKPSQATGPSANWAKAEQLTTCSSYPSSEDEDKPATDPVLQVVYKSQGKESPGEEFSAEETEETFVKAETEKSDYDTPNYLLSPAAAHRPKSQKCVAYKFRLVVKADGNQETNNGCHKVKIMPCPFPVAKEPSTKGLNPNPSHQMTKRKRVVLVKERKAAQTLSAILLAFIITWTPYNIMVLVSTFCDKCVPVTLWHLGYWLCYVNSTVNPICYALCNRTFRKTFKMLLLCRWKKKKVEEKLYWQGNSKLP

[36] = target: Tyrosine-protein kinase Fes/Fps (Homo sapiens) (UniProt P07332); conditions: Compound concentration 1000.0 nM
[37] = target: Receptor tyrosine-protein kinase erbB-3 (Homo sapiens) (UniProt P21860); conditions: Compound concentration 1000.0 nM
[38] = target: Tyrosine-protein kinase Yes (Homo sapiens) (UniProt P07947); conditions: Compound concentration 1000.0 nM
[39] = target: Sigma intracellular receptor 2 (Homo sapiens) (UniProt Q5BJF2); conditions: Compound concentration 10.0 uM
[40] = target: Mitogen-activated protein kinase kinase kinase 1 (Homo sapiens) (UniProt Q13233); conditions: Compound concentration 1000.0 nM
[41] = target: Serine/threonine-protein kinase Chk1 (Homo sapiens) (UniProt O14757); conditions: Compound concentration 1000.0 nM
[42] = target: Cytoplasmic tyrosine-protein kinase BMX (Homo sapiens) (UniProt P51813); conditions: Compound concentration 1000.0 nM
[43] = target: Casein kinase II subunit alpha (Homo sapiens) (UniProt P68400); conditions: Compound concentration 1000.0 nM
[44] = target: Cyclin-dependent kinase 5 (Homo sapiens) (UniProt Q00535); conditions: Compound concentration 1000.0 nM
[45] = target: Homeodomain-interacting protein kinase 4 (Homo sapiens) (UniProt Q8NE63); conditions: Compound concentration 1000.0 nM

## CC(=O)N1CCC(c2ccc(C(=O)NC3=NCCN3)cc2C(F)(F)F)CC1 [BI 0054]
[1]
  residual activity: 100%
[2]
  residual activity: 100%
[3]
  residual activity: 100%
[4]
  IC50: > 10 µM (not active)
[5]
  residual activity: 100%
[6]
  residual activity: 70%
[7]
  residual activity: 88%
[8]
  residual activity: 50%
[9]
  residual activity: 100%
[10]
  residual activity: 88%
[11]
  residual activity: 100%
[12]
  residual activity: 100%
[13]
  residual activity: 90%
[14]
  residual activity: 83%
[15]
  residual activity: 100%
[16]
  residual activity: 100%
[17]
  residual activity: 100%
[18]
  residual activity: 100%
[19]
  residual activity: 100%
[20]
  residual activity: 100%
[21]
  residual activity: 87%
[22]
  residual activity: 84%
[23]
  residual activity: 68%
[24]
  residual activity: 100%
[25]
  residual activity: 100%
[26]
  residual activity: 100%
[27]
  residual activity: 100%
[28]
  residual activity: 100%
[29]
  inhibition: 3.32%
[30]
  residual activity: 100%
[31]
  residual activity: 100%
[32]
  residual activity: 100%
[33]
  residual activity: 100%
[34]
  residual activity: 100%
[35]
  inhibition: 14.9%
[36]
  residual activity: 100%
[37]
  residual activity: 94%
[38]
  residual activity: 100%
[39]
  inhibition: -0.12%
[40]
  residual activity: 86%
[41]
  residual activity: 100%
[42]
  residual activity: 100%
[43]
  residual activity: 86%
[44]
  residual activity: 100%
[45]
  residual activity: 100%

## CC(=O)N1CCC(c2ccc(C(=O)NC(=N)N)cc2C(F)(F)F)CC1 [BI 9627]
[1]
  residual activity: 100%
[2]
  residual activity: 90%
[3]
  residual activity: 100%
[4]
  IC50: 0.231 µM (not active)
[5]
  residual activity: 100%
[6]
  residual activity: 97%
[7]
  residual activity: 100%
[8]
  residual activity: 95%
[9]
  residual activity: 99%
[10]
  residual activity: 100%
[11]
  residual activity: 100%
[12]
  residual activity: 100%
[13]
  residual activity: 100%
[14]
  residual activity: 100%
[15]
  residual activity: 100%
[16]
  residual activity: 100%
[17]
  residual activity: 100%
[18]
  residual activity: 100%
[19]
  residual activity: 100%
[20]
  residual activity: 90%
[21]
  residual activity: 100%
[22]
  residual activity: 89%
[23]
  residual activity: 100%
[24]
  residual activity: 100%
[25]
  residual activity: 100%
[26]
  residual activity: 100%
[27]
  residual activity: 100%
[28]
  residual activity: 100%
[29]
  inhibition: 16.3%
[30]
  residual activity: 92%
[31]
  residual activity: 91%
[32]
  residual activity: 94%
[33]
  residual activity: 100%
[34]
  residual activity: 100%
[35]
  inhibition: -8.36%
[36]
  residual activity: 96%
[37]
  residual activity: 98%
[38]
  residual activity: 98%
[39]
  inhibition: -6.34%
[40]
  residual activity: 96%
[41]
  residual activity: 95%
[42]
  residual activity: 100%
[43]
  residual activity: 95%
[44]
  residual activity: 87%
[45]
  residual activity: 100%
